Assays:
Type in all cases: cell-based, mouse
iKras p53L/+ cells [1] = assay: Steady-state metabolite levels by targeted LC-MS/MS in inhibitor-treated cells; conditions: 18 hr
Protocol: FIG. 43 is a bar graph showing the relative steady-state levels of the indicated metabolites measured by targeted LC-MS/MS, in iKras p53L/+ cells treated with AZD8330 (50 nM), BKM120 (150 nM), or Rapamycin (20 nM) for 18 hours. As control, cells were cultured in the presence or absence of doxycycline for 24 hours. Error bars represent SD of the mean. *p<0.05; **p<0.01.
Two independent iKras p53^L/+ tumor lines and one LSL-Kras p53^L/+ line were maintained in basal media in the presence or absence of doxycycline for 24 h. Fresh media was added 2 hours before the experiment. For metabolite collection, media from technical triplicates (in 10 cm dishes at ˜70% confluence) was fully aspirated and 4 mL of 80% (v/v) methanol was added at dry ice temperatures. Cells and the metabolite-containing supernatants were collected into conical tubes. Insoluble material in lysates was centrifuged at 2,000×g for 15 min, and the resulting supernatant was evaporated using a refrigerated speed vac. […] Ten microliters were injected and analyzed using a 5500 QTRAP hybrid triple quadrupole mass spectrometer (AB/SCIEX) coupled to a Prominence UFLC HPLC system (Shimadzu) via selected reaction monitoring (SRM) of a total of 254 endogenous water soluble metabolites for steady-state analyses of samples. […] Approximately 9-12 data points were acquired per detected metabolite. […]

Gfpt1 = assay: Western blot for O-GlcNAc after shRNA knockdown of Gfpt1; conditions: shRNA against Gfpt1, FIG. 25
Protocol: FIG. 25 is a photograph of a Western blot analysis for O-GlcNAc and Gfpt1 levels in KrasG12D p53L/+ cells infected with shRNA against GFP or Gfpt1. For control samples, MEFs were cultured in the presence or absence of glucose (Glc+, Glc−) for 24 hours. Actin was used as a loading control.
Tissues were fixed in 10% formalin overnight and embedded in paraffin. Immunohistochemical analysis was performed as described (see, Aguirre et al. (2003) Genes Dev 17:3112-3126). The visualization of primary antibodies was performed with horseradish peroxidase system (Vectastain ABC kit, Vector Labs, Inc., Burlingame, Calif.). Images were captured using a Leica DM1400B microsystem and Leica FW4000 version 1.2.1. The primary antibodies used for immunohistochemistry or Western blot were: SMA (NB600-531, Novus Biologicals®, Littleton, Colo.), BrdU (ab1293, Abcam, Cambridge, Mass.), cleaved-Caspase3 (9664, Cell Signaling, Danvers, Mass.), phosphor-Akt (4060, Cell Signaling), phospho-Erk (4376, Cell Signaling), phospho-S6 (4858, Cell Signaling), Actin (sc-1615, Santa Cruz, Santa Cruz, Calif.), Ras (05-516, Millipore, Billerica, Mass.), O-GlcNAc (ab2739, Abcam). Gfpt1 antibody was a kind gift from Immuno-Biological Laboratories Co., Gunma, Japan.
(§1) Lentiviral shRNA clones targeting Gfpt1, RPIA, RPE, MYC, and FASN and nontargeting control construct shGFP were obtained from the RNAi Consortium at the Dana-Farber/Broad Institute. The clone IDs and nucleic acid sequences for the shRNAs are:
Lentiviruses were produced in 293T cells with packing mix (ViraPower Lentiviral Expression System, Invitrogen, Carlsbad, Calif.) as per manufacturer's instruction. 293T cell supernatant containing the shRNA lentivirus was collected, filtered through 0.45 μm filter, and added to target iKras cells in the presence of 8 μg/ml polybrene.
To further substantiate the essentiality of Kras^G12D-mediated control of protein glycosylation, the impact of shRNA-mediated knockdown of Gfpt1 was assessed. […]

iKras p53L/+ cells [2] = assay: QPCR of metabolism genes in inhibitor-treated iKras p53L/+ cells; conditions: AZD8330 50 nM, 18 hr, FIG. 41
Protocol: FIG. 41 is a bar graph showing the relative mRNA expression of the indicated genes in iKras p53L/+ cells treated with MEK inhibitor, AZD8330 (50 nM), BKM120 (150 nM), or Rapamycin (20 nM) for 18 hours. Error bars represent SD of the mean; *p<0.05; **p<0.01.
To further dissect the downstream mechanism of Kras^G12D-mediated metabolic reprogramming, specific pharmacological inhibitors were used to examine the impact of effector pathways on tumor metabolism. iKras p53L/+ cells were treated with AZD8330 (50 nM), BKM120 (150 nM), or Rapamycin (20 nM) for 18 hr. In parallel, cells were cultured in the presence or absence of doxy for 24 hr to serve as controls and relative mRNA levels of indicated metabolism genes were measured by QPCR. Some cell lysates were blotted for phospho-Akt, phospho-Erk, phospho-S6, and Myc. […] To gain further insight into the Kras^G12D-mediated transcriptional regulation that facilitates metabolic reprogramming, promoter analysis was performed on differentially expressed genes upon Kras^G12D inactivation.

iKras p53L/+ cells [3] = assay: Western blot for phospho-Akt, phospho-Erk, phospho-S6 and Myc in inhibitor-treated cells; conditions: MEK inhibitor treatment (AZD8330 50 nM, 18 hr)
Protocol: FIG. 42 is a photograph of a Western blot showing expression of phospho-Akt, phospho-Erk, phospho-S6, Myc, and Actin (loading control) in iKras p53L/+ cells treated with AZD8330 (50 nM), BKM120 (150 nM), or Rapamycin (20 nM) for 18 hours. As control, cells were cultured in the presence or absence of doxycycline for 24 hours.
Tissues were fixed in 10% formalin overnight and embedded in paraffin. Immunohistochemical analysis was performed as described (see, Aguirre et al. (2003) Genes Dev 17:3112-3126). The visualization of primary antibodies was performed with horseradish peroxidase system (Vectastain ABC kit, Vector Labs, Inc., Burlingame, Calif.). Images were captured using a Leica DM1400B microsystem and Leica FW4000 version 1.2.1. […]
To further dissect the downstream mechanism of Kras^G12D-mediated metabolic reprogramming, specific pharmacological inhibitors were used to examine the impact of effector pathways on tumor metabolism. iKras p53L/+ cells were treated with AZD8330 (50 nM), BKM120 (150 nM), or Rapamycin (20 nM) for 18 hr. In parallel, cells were cultured in the presence or absence of doxy for 24 hr to serve as controls and relative mRNA levels of indicated metabolism genes were measured by QPCR. […]

iKras p53L/+ PDAC cells = assay: Clonogenic assay; conditions: shRNA against FASN, FIG. 49
Protocol: FIG. 38 is a bar graph quantifying the clonogenic activity, expressed as colony number, in iKras p53L/+ cells maintained under high (11 mM) or low (1 mM) glucose, determined for cells infected with shRNA against GFP, RPIA, RPE, or RPIA+RPE; statistical significance is indicated as follows: *: p<0.05; **: p<0.01.
FIG. 49 is a bar graph quantifying the colony numbers in a clonogenic assay for iKras p53L/+ PDAC cells infected with shRNA against GFP or FASN.
400 cells were seeded into each well of 6-well plate in duplicate and colonies were stained 7-10 days later with 0.2% crystal violet in 80% methanol.

FASN = assay: Relative expression of FASN after shRNA against FASN; conditions: iKras p53L/+ PDAC, FIG. 48
Description: FIG. 48 is a bar graph quantifying the relative expression level of FASN in iKras p53L/+ PDAC infected with shRNA against GFP or FASN.
as §1
As shown in Example 4, above, extinction of iKras led to decreased expression of FASN. Thus, it was next determined whether FASN plays a role in tumorigenesis in PDAC tumor model. iKras p53L/+ PDAC were treated with shRNA against FASN or GFP (control). […] Thus, FASN was determined to play a role in tumorigenic activity of iKras p53L/+ PDAC cells.

iKras p53L/+ cells [4] = assay: GSH and GSSG levels normalized to cell number; conditions: 0.5 mM BSO for 24 hours, FIG. 33
Protocol: FIG. 33 is a bar graph quantifying the GSH and GSSG levels normalized to cell number in iKras p53L/+ cells or constitutive LSL-KrasG12D p53L/+ control cells (LSL-Kras) maintained in the presence or absence of doxycycline (Dox+/−) or treated with 0.5 mM BSO for 24 hours; statistical significance is indicated as follows: *: p<0.05.
Doxycycline (Research Product International), BSO (Sigma), Ras activation assay kit (Millipore), G6PD activity assay kit (BioVision), GSH/GSSG-Glo™ assay kit (Promega, Madison, Wis.).
To explore this possibility in the context of Kras^G12D-driven PDAC, ^14C1- or ^14C6-labeled glucose was used to measure the production of CO2 from the oxidative PPP (^14C1—CO2) relative to that generated from the glycolysis-TCA cycle route (^14C6—CO2). Consistent with data showing that Kras^G12D de-induction exerts a minimal effect on TCA cycle intermediates (FIG. 18), no obvious change in the release of ^14C6—CO2 was observed upon doxycycline withdrawal (FIG. 32). More importantly, no significant decrease in the release of ^14C1—CO2 was detected (FIG. 32), indicating Kras^G12D extinction was not associated with decreased flux through the oxidative arm of the PPP.

Q: Which “impact on iKras-directed tumor metabolism” value (iKras p53L/+ cells [1]; BKM120 150 nM, FIGS. 41, 42 and 43) does the source give for `Nc1cc(C(F)(F)F)c(-c2cc(N3CCOCC3)nc(N3CCOCC3)n2)cn1` [BKM120] here?
A: did not exhibit a significant impact

Q: With “shRNA #1: lentiviral shRNA clone targeting Gfpt1, CCTGAAACTTAAGACAGTTAA (SEQ ID NO: 165)” as the molecule, how does the “overall O-linked glycosylation (O-GlcNAc)” value (Gfpt1) read?
A: reduced

Q: `Cc1cc(C(=O)NOCCO)c(Nc2ccc(I)cc2F)n(C)c1=O` [AZD8330] was tested. Which “expression of glycolytic genes (Glut1, Hk1, Eno1, Ldha), HBP gene (Gfpt1) and nonoxidative PPP gene (Rpia), relative mRNA” value (iKras p53L/+ cells [2]) did it give?
A: significantly decreased

Q: What about the “metabolite changes in the glycolysis, HBP and nonoxidative PPP pathways” value (iKras p53L/+ cells [1]; AZD8330 50 nM, FIG. 43) of the same molecule?
A: recapitulated the Kras^G12D inactivation induced metabolite changes

Q: And the Myc protein level (iKras p53L/+ cells [3])?
A: decreased

Q: How did the “overall O-linked glycosylation (O-GlcNAc)” value (Gfpt1) turn out when “shRNA #3: lentiviral shRNA clone targeting Gfpt1, CAGGGCATTCTCAGTGTGATT (SEQ ID NO: 167)” was run?
A: reduced

Q: What does the source list for “shRNA4: lentiviral shRNA clone targeting FASN, CGTCTATACCACTGCTTACTA (SEQ ID NO: 175)”?
A: colony formation (iKras p53L/+ PDAC cells): marked decrease; FASN expression (FASN): marked decrease

Q: “shRNAS: lentiviral shRNA clone targeting FASN, GCTGCGGAAACTTCAGGAAAT (SEQ ID NO: 176)” was tested. Which colony formation (iKras p53L/+ PDAC cells) did it give?
A: to some extent

Q: How did the “ratio of GSH/GSSG” value (iKras p53L/+ cells [4]) turn out when `CCCCS(=N)(=O)CCC(N)C(=O)O` (stereo not shown) [BSO, buthionine sulfoximine] was run?
A: dramatically reduced

Q: With “FASN shRNA1: lentiviral shRNA clone targeting FASN, GCTGGTCGTTTCTCCATTAAA (SEQ ID NO: 172)” as the molecule, how does the colony formation (iKras p53L/+ PDAC cells) read?
A: marked decrease

Q: And the FASN expression (FASN)?
A: marked decrease

Q: For “shRNA #2: lentiviral shRNA clone targeting Gfpt1, CGTCTCTCTATCCACCGAATT (SEQ ID NO: 166)”, which “overall O-linked glycosylation (O-GlcNAc)” value (Gfpt1) is on record?
A: failed to affect glycosylation
